Columns and labels:
[1] = tested on: 4T-1 TNBC cells; assay: Subcutaneous 4T-1 TNBC tumor model, intratumoral injection; tumor growth by caliper/IVIS, survival; assay type: in vivo, Balb/c mice; settings: 4T-1 s.c.; for impact on tumor growth: injected intratumorally on day 12, caliper (FIGS. 7, 8)
From the text: Mice. 6-10 week old female Balb/c mice or C57BL/6 animals of both sexes were procured from Baylor College of Medicine or Jackson Laboratories (Bar Harbor, ME). Th-MYCN mice in the 129X1/SvJ background were a kind gift from Dr. William Weiss (UCSF, San Francisco, CA) and were bred in house. All mice were maintained in accordance with the specific IACUC requirements of Baylor College of Medicine and in accordance with animal protocol AN-8375.
Tumor Implantation and Measurements. 500,000 4T-1 TNBC cells (+/−luc2 transduction) were subcutaneously injected onto the hind quarters/back of each mouse and allowed time to reach palpation (approximately 50-100 mm^3) before treatment. For orthotopic 4T-1 experiments, 500,000 4T-1 cells were implanted in the mammary fat pad according to the method of Zhang et al.^34 Following establishment of tumors, experimental cohorts were assembled by means of stratified randomization. Attempts were made to minimize confounding variables such as order of cohort treatment, order of tumor measurement, and cage location by means of simple randomization. Tumors were treated with either the indicated antitumor regimen or vehicle control and measured by IVIS imaging (if applicable) or calculated by caliper measurement. 100,000 MOC-2 HNSCC cells were subcutaneously injected onto the hind quarters/back of each mouse and allowed to become palpable (approximately 50-100 mm^3) before treatment. Tumor size and progression were determined by caliper measurement. Single cell suspensions were generated from Th-MYCN tumors according to the method of Kroesen et al.^12 Suspensions were subcutaneously injected onto the hind quarters/back of each mouse and allowed time to reach palpation (approximately 50-100 mm^3) before treatment. Tumor size and progression were determined by caliper measurement. Tumor volumes were calculated by measuring in two dimensions according to the formula (longest length^2)×shortest length.
IVIS Imaging. Post tumor implantation, mice were injected with […] of 10 mg/ml D-Luciferin (Regis Technologies, Morton Grove, IL), incubated for 7 min and bio-luminescence was measured with the IVIS imaging system (Caliper Life Sciences, Waltham, MA) following a 60 second exposure. Imaging was performed at 2-4 day intervals.
Antitumor reagents. For optimization in the TNBC model, all reagents were dissolved in either DMSO or sterile water based on solubility requirements and included Copper(II) diethyldithiocarbamate at 85 μg/50 μl (VWR, Radnor, PA), 2-Cl-IB-MECA at 20 μg/50 μl (Millipore, Burlington, MA), DMXAA at […]/50 μl (R&D Systems, Minneapolis, MN), 5′ppp-dsRNA/Lyovec at 375 ng/50 μl (Invivogen, San Diego, CA), R848 at 15 μg/50 μl (Invivogen), galunisertib at […]/50 μl (Selleckchem, Houston, TX), epcadostat at […]/50 μl (Selleckchem), N^w-Hydroxy-nor-L-arginine at 6 μg/50 μl (Sigma-Aldrich, St. Louis, MO), L-NMMA at 100 ng/50 μl (Abcam, Boston, MA), clodronate at […]/50 μl (Abcam), and 4-1BB ligand at 1 μg/50 μl (NovusBio). Combinatorial treatments were reconstituted as a 10× stock, combined as necessary, and diluted to a 1× concentration with the appropriate diluent. Treatments were intratumorally injected with a 28 gauge needle as a 50 μl bolus. […]
Statistical Analysis. Significance of differences, unless stated otherwise, was determined by one-way analysis of variance (ANOVA) using Tukey's honestly significant difference (HSD) post hoc test. […]

[2] = tested on: 4T-1 luc-2+ cells; assay: Orthotopic 4T-1 TNBC model (mammary fat pad), intratumoral treatment, IVIS; assay type: in vivo, Balb/c mice; settings: 4T-1 luc-2+ in mammary fat pad, intratumoral treatment from day 7
Experimental: Lastly, the boosting regimen was combined together with regimen 16 and performed a dose response analysis at 1×, 0.5×, 0.125×, 0.0625×, and 0.03125× concentrations. […] Similar to the experiment outlined in FIGS. 1C-D, this experiment was performed with the 4T-1 luc2^neg parent cell line to validate that protective immune responses were not dependent upon the presence of xenogeneic luciferase. The treatment model was next validated in the orthotopic setting (Zhang et al., 2019). In this series of experiments, 500,000 4T-1 luc-2^+ cells were implanted under the fourth nipple of the mammary fat pad. […]
Tumor Implantation and Measurements. […] Tumors were treated with either the indicated antitumor regimen or vehicle control and measured by IVIS imaging (if applicable) or calculated by caliper measurement. […] Tumor size and progression were determined by caliper measurement. […] Tumor size and progression were determined by caliper measurement. Tumor volumes were calculated by measuring in two dimensions according to the formula (longest length^2)×shortest length.
IVIS Imaging. Post tumor implantation, mice were injected with […] of 10 mg/ml D-Luciferin (Regis Technologies, Morton Grove, IL), incubated for 7 min and bio-luminescence was measured with the IVIS imaging system (Caliper Life Sciences, Waltham, MA) following a 60 second exposure. […]

Compound	impact on tumor growth [1]	other results
4-1BBL: 4-1BB ligand (NovusBio), 4-1BB agonist		effect of presence of 4-1BBL on anti-tumor effects of the TLR, STING and RLR agents ([1]; FIG. 8): antagonized the anti-tumor effects
CC(=O)O.CNC(=N)NCCC[C@H](N)C(=O)O [L-NMMA, L-NG-monomethyl arginine acetate]	no beneficial impact on tumor growth	
N=C(NO)NCC[C@H](N)C(=O)O [No-hydroxy-nor-L-arginine]	no beneficial impact on tumor growth	
O=P(O)(O)C(Cl)(Cl)P(=O)(O)O [clodronate]	no beneficial impact on tumor growth	
NS(=O)(=O)NCCNc1nonc1C(=NO)Nc1ccc(F)c(Br)c1 [epacadostat]	no beneficial impact on tumor growth	
Cc1cccc(-c2nn3c(c2-c2ccnc4ccc(C(N)=O)cc24)CCC3)n1 [galunersitib, galunisertib]		tumor growth in the orthotopic setting [2]: no impact on tumor growth
